From a melting point compilation (Tetko et al.; mined from patent text by program, amines drawn as free bases though some values may be those of a salt) come the findings set out here.

Structures are written as SMILES. Non-standard residues stand in square brackets, D forms with d. Residues, ends and D or L forms follow the SMILES beside them. ξ: configuration not given here. *: point of attachment. Boc = CC(C)(C)OC(=O)*; ξA = CC(N)C(=O)O

In the case of `CCc1cnc2c(c1)C=Cc1cccnc1N2`, the melting point is 95 to 97 °C.
The compound `CC(=O)N1CCC(C(=O)N(CCCN2CCC(Cc3ccccc3)CC2)c2ccc(C)c(Cl)c2)CC1` showed a melting point of 96 to 99 °C.
In the case of `CCOC(=O)c1c(Nc2c(C)cc(Br)cc2C)n[nH]c1C` it was 168 to 196 °C; in that of `CC(C#N)=C1CCN(c2ccc(N3C[C@H](CO)OC3=O)cc2F)CC1`, 100 to 102 °C.
In the case of `O=C1C(=O)c2ccccc2C2=C1SCC1(CCN(S(=O)(=O)c3cccs3)CC1)O2` it was 245 to 248 °C; in that of `Cc1ncccc1Cn1nnnc1-c1cccc(Cl)c1Cl`, 121 to 122 °C; in that of `O=C(CCS)NC1CCCCC1`, 73.5 to 75.5 °C.
In the case of `COC(=O)c1ccc(Cc2cc3cc(C(F)(F)F)ccc3n2S(=O)(=O)c2ccc(C(C)C)cc2)cc1F` it was 132 °C; in that of `CCCCCS(=O)(=O)NC(=O)/C=C/c1ccc(OCCOC)cc1OCC1CCCCC1`, 97.5 to 98.3 °C.
`CC(=O)OCc1cn(C(c2ccccc2)(c2ccccc2)c2ccccc2)cn1` displayed a melting point of 133 to 134 °C.
The value for `COc1cccc2c1OC(CN1CC=C(c3c[nH]c4cc(F)ccc34)CC1)CO2` (centres undefined) was 184 to 185 °C.
The value for `CN(C)C(c1cccs1)C1CCC(=NO)CC1` (centres undefined) was 118 to 121 °C; that for `CCCCCCCCc1ccc(-c2ncc(OCC(C)OC(=O)CCCCCC)cn2)cc1` (centres undefined) was 33 to 34.3 °C; that for `CCCCc1nn(-c2cc(NC(=O)c3ccccc3)ccc2Br)c(=O)n1Cc1ccc(-c2ccccc2S(=O)(=O)NC(=O)OC(C)(C)C)cc1F` was 130 to 133 °C.
`CC1(C)CC(=O)C2=C(C1)NC1=C(C(=O)CC(C)(C)C1)C2c1cc(Br)cc(Br)c1`: the melting point lay within 288 to 290 °C.
In the case of `Cc1cccc(C(O)CNC2=NCCN2)c1` (centres undefined) it was 121 °C; in that of `CCCCC[C@H]1CO[C@H](c2ccc(C(=O)O)cc2)OC1`, 210 to 211 °C.
In the case of `Nc1ccccc1C(=O)NN1CCOCC1` it was 172 °C; in that of `Cc1cc(OC=CCC(F)(F)F)nc(Oc2cc(C(F)(F)F)nn2C)c1`, 56 °C; in that of `N#Cc1cnn2c(-c3cccnc3)ccnc12`, 258 to 260 °C.
The value for `Cc1c(C(=O)Nc2ccc(N3CCN(CCO)CC3)c(C#N)c2)cnn1-c1ccc(F)c(Cl)c1` was 191 °C; that for `O=C1Cc2cc(F)c(Cl)cc2N1` was 196 to 206 °C; that for `O=C(O)c1cc(-c2ccccc2)c2c(n1)OCCN(Cc1cc(C(F)(F)F)cc(C(F)(F)F)c1)C2=O` was 119 to 123 °C.
In turn, `COC(=O)c1cccc(Oc2ccc(NC(=O)c3ccc([N+](=O)[O-])cc3Br)cc2NC(=O)c2ccc([N+](=O)[O-])cc2Br)c1C(=O)OC` displayed a melting point of 138 to 142 °C.
The value for `Cc1c(C(C)(C)C)cc(C(C)C)c(O)c1CO` was 143 to 146 °C; that for `CC(C)(C)OC(=O)N1CCC(Oc2ccccc2C(C)(C)C)CC1` was 102 to 103 °C; that for `O=c1c(Cc2ccccc2)cn(-c2cccc(Cl)c2)c2ncccc12` was 170 to 171 °C.
The value for `O=C(O)c1cccc(NC(=S)Nc2ccc3c(Cl)c(OCCBr)oc(=O)c3c2)c1` was 157 to 158 °C.
The value for `O=C1CN2Cc3cc(C(=O)c4cccnc4)ccc3N=C2N1` was 275 °C; that for `Cn1nc(-c2cnc(N)nc2-c2ccccc2Br)ccc1=O` was more than 250 °C; that for `N#CC1C(=O)NC(=O)C(C(=O)OCc2ccccc2)C12CCCCC2` (centres undefined) was 153 to 156 °C.
The compound `CC(=Cn1ccnc1)C(=O)c1ccc(Cl)cc1Cl` registered a melting point of 129 to 130 °C.
In the case of `CN(C(=O)c1ccc2nonc2c1)C1CCCOC1` (centres undefined) it was 134 to 135 °C.
For the compound `CC(C)c1ccc(C=O)c(=O)c(O)c1`, the melting point turned out to be 76 °C.
`CCCCn1c(=O)n(O)c(=O)c2cc(F)c(N3CCCC3)nc21`: the melting point is 153 to 155 °C.
The value for `CC(=O)NCC1CN(c2ccc(N3CCN(C(=O)COC(C)=O)CC3)c(F)c2)C(=O)O1` (centres undefined) was 199 to 201 °C; that for `C1=C(CCCc2ccccc2)CCN(Cc2nc3ccccc3[nH]2)C1` was 131 to 132 °C; that for `CCOCc1nc2c(N)nc3cc(OCCCCCCNC(C)=O)ccc3c2n1CC(C)(C)NC(=O)NC(C)C` was 90 to 110 °C.
`COC(=O)CNC(=O)C(C)NC(=O)CNC(=O)CNC(=O)OC(C)(C)C` (centres undefined) (Boc-GG[ξA]G-OMe) returned a melting point of 103 to 105 °C.
The value for `NC(=O)c1cc([N+](=O)[O-])c(N2CC2)c([N+](=O)[O-])c1` was 228 to 231 °C; that for `CC(C)(C)C(=O)OC1CC(=O)C2(C)CCC3C(CCC4=CC(=O)CCC43C)C12` (centres undefined) was 148 to 150 °C; that for `COc1ccc(I)c(CC(=O)N(C)C)c1` was 86 to 89 °C.
`Cc1cc(COc2cccc3c2CN(C2CCC(=O)NC2=O)C3=O)ccc1Cl` (centres undefined) showed a melting point of 217 to 219 °C.
In the case of `CC(C)OC(=O)N1CC(=S)Nc2ccc(-c3cccc(Cl)c3)cc21` it was 208 to 212 °C; in that of `COc1ccc(C(=O)Nc2cccnc2)c2c3cc(Cl)ccc3n(Cc3ccc(F)cc3)c12`, 224 to 228 °C.
The value for `O=C1N(C2CCCCC2)CC(CO)C1(c1ccccc1)c1ccccc1` (centres undefined) was 148 to 150 °C; that for `Cc1ccc(-c2c(CNC(=O)OC(C)(C)C)n(CC(C)C)c(=O)c3ccc(/C=C/C(N)=O)cc23)cc1` was 152 to 154 °C; that for `CC(C(O)c1ccc2c(c1)CCCS2)N1CCC(n2c(=O)[nH]c3ccccc32)CC1` (centres undefined) was 232 to 235 °C.
Regarding `CC1=C(C2C=CN(C(=O)OCC(Cl)(Cl)Cl)N=C2)SCC(=O)N1` (centres undefined), the melting point was 156 to 157 °C.
For the compound `CCOC(=O)C1=C(C)NC(C)=C(C(=O)OCC)C1c1ccccc1OCc1ccccc1`, the melting point was in the range of 134 to 136 °C.
The value for `O=C1CCCc2ccc([N+](=O)[O-])cc21` was 104 to 105 °C; that for `O=C(c1ccc(F)cc1)C1CCN(CCn2c(=O)[nH]c3cc(F)ccc3c2=O)CC1` was 248 °C.
The value for `COc1ccc(-c2nc(C(=O)O)c[nH]2)cc1OC1CCCC1` was 206 to 208 °C; that for `CCCCc1ncc(/C=C(\Cc2cccs2)C(=O)O)n1Cc1ccc(OCC(=O)O)cc1` was 192 to 194 °C; that for `CC(Nc1ccccc1)=C(C#N)C(=O)Nc1ccccc1Cl` was 110 to 112 °C.
In the case of `O=C1NC(=O)c2c1cc1ccc3c(c1c2-c1ccc(F)cc1)OCO3` it was 269 to 271 °C.
In the case of `O=C1c2ccccc2C(=O)N1c1cc(CCl)ccn1`, the melting point was 152 to 153 °C.
On to `COc1ccc(-c2coc(C(=O)O)cc2=O)cc1`, for which the melting point is 232 to 234 °C.
In turn, `CCOP(=O)(CC(=O)Nc1cc2c(Nc3ccc(Br)c(Br)c3)ncnc2cn1)OCC` came in with a melting point of 120 to 124 °C.
The value for `CC1(C)CC(=O)C(C(=O)NS(=O)(=O)c2ccc(Cl)cc2)C(=O)C1` was 103 to 106 °C; that for `CCOC(=O)C(C)(C)n1c(=O)[nH]c2cc(Cl)ccc2c1=O` was 201 to 202 °C; that for `O=C(O)[C@H](Cc1ccccc1)NC(=O)[C@@H]1CCCN1S(=O)(=O)c1ccc(Cl)cc1` was 69 to 71 °C.
With `OCC(Nc1nc(-c2ccc(Br)cc2)cs1)C(F)(F)F` (centres undefined), the melting point fell in the range of 133 to 134 °C.
As for `CS(=O)(=O)c1ccc(-c2cnn(-c3ccc(F)cc3)c(=O)c2Cc2ccccc2)cc1`, the melting point lay within 180 to 182 °C.
In the case of `CSc1sc(-c2nccs2)c2c1C(=O)CCC2(C)C` it was 188 to 190 °C; in that of `Oc1ccc(Oc2ncc(Cl)cc2F)cc1`, 90 to 92 °C.
In the case of `COc1ccc(C(=O)CCC(=O)N[C@@H](C)C(=O)O)cc1F` it was 126 to 128 °C; in that of `CC(C)(C)C(=O)C(CCCCOc1ccccc1)n1cncn1` (centres undefined), 59 to 62 °C; in that of `COc1ccccc1C(=O)COc1cccc(NC(=O)c2ccccn2)c1`, 136 to 137 °C.
The value for `CSC1NC(=O)N(Cc2ccco2)C(=O)N1` was 209 to 211 °C; that for `C=C[C@@H]1Oc2ccccc2[C@H]1CC(=O)O` (relative stereo) was 79 to 81 °C; that for `COC(=O)C(=C/c1cc(OC)c(OC)c(OC)c1)/C(=C\c1ccccc1)C(N)=O` was 144 to 146 °C.
Turning to `COc1cc(NC(C)=O)c(Cl)cc1NC(=O)N1CCN(Cc2ccccc2)CC1`, the melting point was determined as 174 °C.
The value for `CNC(=S)Nc1ccc2c(c1)C(=O)C1(CC1)O2` was 191 to 194 °C; that for `Cn1ccnc1N1CCC(c2ccc(N)cc2)CC1` was 187 to 188 °C; that for `C[C@@H](CS(=O)C(F)(F)C(F)F)[C@](O)(Cn1cncn1)c1ccc(Cl)cc1Cl` (some centres undefined) was 153 to 155 °C.
For the compound `COc1cccc2c1C(=CC(=O)c1ccccc1)OC2=O`, the melting point is 165 °C.
The value for `O=C(CC(=O)C(F)F)c1ccc(Cl)cc1` was 65 to 66.5 °C; that for `CCCCCCCCCCC(O)Cn1ccnc1-c1ccccn1` (centres undefined) was 62 to 65 °C.
In the case of `COc1cc(OC)c2c(=O)c(I)coc2c1` it was 158 to 160 °C; in that of `O=C(O)c1csc(-c2ncccc2O)n1`, more than 300 °C.
In the case of `COc1cccnc1CSCCN=C(NC#N)SC` it was 102 to 103 °C.
On to `CNc1snc(C)c1[N+](=O)[O-]`, for which the melting point was determined as 153 °C.
The value for `CCOC(=O)C1=Cc2cc(Cl)c(Oc3ccc(OC)cc3)cc2OC1C(F)(F)F` (centres undefined) was 116 to 117 °C; that for `COc1ccccc1N1CCN(CCC(C#N)(c2ccccc2)c2ccccc2[N+](=O)[O-])CC1` (centres undefined) was 61 to 64 °C; that for `CCc1nc2c(-c3cc4c(c(Br)c3C)OCC4)ncnc2n1C(C1CC1)C1CC1` was 179 to 180 °C.
Compound `CC(=O)O[C@H]1C[C@@H](n2cnc3c(Cl)ncnc32)[C@H](O)[C@@H]1O` (racemic) came in with a melting point of 103 to 104 °C.
In the case of `CC(C)CCNS(=O)(=O)c1cc(C(=O)NC2CCc3ccccc32)ccc1Oc1ccccc1` (centres undefined) it was 73 °C; in that of `C=Cc1cc(O)cc2nc(-c3ccc(O)cc3)oc12`, 249 to 250 °C.
